# pIC50: −log10 of the molar value.
# How the values were obtained:
# [1] = system: A2780, human ovarian carcinoma cells; assay: Proliferation assay, A2780 (crystal violet); assay type: cell-based; conditions: 96 h, A2780, 4 days, read-out: Inhibition of A2780 cell proliferation IC50
# Method: Cultivated tumour cells (HeLa, human cervical tumour cells, ATCC CCL-2; NCI-H460, human non-small cell lung carcinoma cells, ATCC HTB-177; A2780, human ovarian carcinoma cells, ECACC #93112519; DU 145, hormone-independent human prostate carcinoma cells, ATCC HTB-81; HeLa-MaTu-ADR, multidrug-resistant human cervical carcinoma cells, EPO-GmbH Berlin; Caco-2, human colorectal carcinoma cells, ATCC HTB-37; B16F10, mouse melanoma cells, ATCC CRL-6475) were plated at a density of 5,000 cells/well (DU145, HeLa-MaTu-ADR), 3,000 cells/well (NCI-H460, HeLa), 2,500 cells/well (A2780), 1,500 cells/well (Caco-2), or 1,000 cells/well (B16F10) in a 96-well multititer plate in 200 μL of their respective growth medium supplemented 10% fetal calf serum. […] Cell proliferation was determined by staining the cells with crystal violet: the cells were fixed by adding 20 μl/measuring point of an 11% glutaric aldehyde solution for 15 minutes at room temperature. […] The extinction was determined by photometry at a wavelength of 595 nm. The change of cell number, in percent, was calculated by normalization of the measured values to the extinction values of the zero-point plate (=0%) and the extinction of the untreated (0 μm) cells (=100%). […]
# [2] = Caco-2 permeation assay; assay type: in vitro ADME; conditions: human, pH 7.2
# Method: 4. Caco-2 Permeation Assay:
# Caco-2 cells (purchased from DSMZ Braunschweig, Germany) were seeded at a density of 4.5×10^4 cells per well on 24 well insert plates, 0.4 μm pore size, and grown for 15 days in DMEM medium supplemented with 10% fetal bovine serum, 1% GlutaMAX (100×, GIBCO), 100 U/mL penicillin, 100 μg/mL streptomycin (GIBCO) and 1% non essential amino acids (100×). Cells were maintained at 37° C. in a humified 5% CO2 atmosphere. Medium was changed every 2-3 day. Before running the permeation assay, the culture medium was replaced by a FCS-free hepes-carbonate transport buffer (pH 7.2). For assessment of monolayer integrity the transepithelial electrical resistance (TEER) was measured. Test compounds were predissolved in DMSO and added either to the apical or basolateral compartment in final concentration of 2 μM in transport buffer. Before and after 2 h incubation at 37° C. samples were taken from both compartments. Analysis of compound content was done after precipitation with methanol by LC/MS/MS analysis. Permeability (Papp) was calculated in the apical to basolateral (A→B) and basolateral to apical (B→A) directions. The apparent permeability was calculated using following equation: Papp=(Vr/Po)(1/S)(P2/t)
# Where Vr is the volume of medium in the receiver chamber, Po is the measured peak area or height of the test drug in the donor chamber at t=o, S the surface area of the monolayer, P2 is the measured peak area of the test drug in the acceptor chamber after 2 h of incubation, and t is the incubation time. The efflux ratio basolateral (B) to apical (A) was calculated by dividing the Papp B-A by the Papp A-B. In addition the compound recovery was calculated. The following reference compounds were used for the classification of the permeability class: Antipyrine, Pyrazosin, Verapamil, Fluvastatin, Cimetidine, Ranitidine, Atenolol, Sulfasalazine.
# [3] = Caco-2 monolayer, 2 μM test compound, 2 h
compound,measurement,setting,value
"COc1cc(F)ccc1-c1cc(Nc2cc(CS(C)(=O)=O)ccn2)ncc1F [Example 1, 5-Fluoro-4-(4-fluoro-2-methoxyphenyl)-N-{4-[(methylsulfonyl)methyl]pyridin-2-yl}pyridin-2-amine]",pIC50,[1],7.55
same,"efflux ratio at 2 h, 2 μM","[2]; Papp B-A / Papp A-B, Caco-2, 2 μM test compound",0.49
same,"Papp A→B at 2 h, 2 μM",[2]; [3],20.7 ×10⁻⁶ cm/s
same,"Papp B→A at 2 h, 2 μM",[2]; [3],10.1 ×10⁻⁶ cm/s
